Laboratory results as given in patent publication US10239843B2 (CANCER RESEARCH TECHNOLOGY LIMITED, priority 2014, dated 2019).
Read-outs that look alike come from different tables or passages of the source.

Columns and labels:
Human Full Length PARG = Human Full Length PARG (Homo sapiens (Human), UniProt Q86W56); assay: PARG enzyme assay (TR-FRET); type: biochemical
PARG in HeLa cell line = assay: PARG cell assay (PAR chain immunofluorescence after MMS); type: cell-based; settings: HeLa cells
Protocol: This method is based on the detection of endogenous levels of poly (ADP) ribose chains present in the nucleus of HeLa cell line using indirect immunofluorescence. MMS stimulation increases PAR chains for up to 25 mins. After that point, PARG is active and breaks down the PAR chains, until by one hour after stimulation no PAR chains are detectable. Inhibition of PARG maintains PAR chains.
Briefly, following compound treatment and treatment with the DNA damaging agent methylmethanesulfonate (MMS), the cell monolayer is fixed, then permeabilised and incubated with a mouse monoclonal antibody raised against multimers of poly(ADP) ribose.
At the end of the 1 h dosing period, MMS was added to duplicates at a final concentration of 50 μg/mL, for a further hour.
Media was tipped off and the cells fixed with 50 μL ice-cold 95% MetOH/PBS for 15 mins at −20° C. Following a PBS wash, 50 μL PBS/0.1% Triton was added to the cells for 20 mins. Following another PBS wash, anti-PAR antibody (Calbiochem AM80) was diluted 1:4000 in a buffer (PBS+0.5% FBS+0.05% Tween20) and added to the cells and incubated overnight at 4° C.
Cells were washed three times with PBS and the plate sealed with a light-proof seal.

[1] = Homo sapiens, MMS treatment, read-out: PARG Cell IC50
[2] = read-out: PARG Biochem IC50 Geomean
[3] = Homo sapiens, MMS 50 μg/mL, read-out: PARG Cell IC50 Geomean
[4] = MMS treatment, read-out: PARG Cell IC50
[5] = MMS 50 μg/mL, read-out: PARG Cell IC50 Geomean

Sequence of Human Full Length PARG (Q86W56 whole entry): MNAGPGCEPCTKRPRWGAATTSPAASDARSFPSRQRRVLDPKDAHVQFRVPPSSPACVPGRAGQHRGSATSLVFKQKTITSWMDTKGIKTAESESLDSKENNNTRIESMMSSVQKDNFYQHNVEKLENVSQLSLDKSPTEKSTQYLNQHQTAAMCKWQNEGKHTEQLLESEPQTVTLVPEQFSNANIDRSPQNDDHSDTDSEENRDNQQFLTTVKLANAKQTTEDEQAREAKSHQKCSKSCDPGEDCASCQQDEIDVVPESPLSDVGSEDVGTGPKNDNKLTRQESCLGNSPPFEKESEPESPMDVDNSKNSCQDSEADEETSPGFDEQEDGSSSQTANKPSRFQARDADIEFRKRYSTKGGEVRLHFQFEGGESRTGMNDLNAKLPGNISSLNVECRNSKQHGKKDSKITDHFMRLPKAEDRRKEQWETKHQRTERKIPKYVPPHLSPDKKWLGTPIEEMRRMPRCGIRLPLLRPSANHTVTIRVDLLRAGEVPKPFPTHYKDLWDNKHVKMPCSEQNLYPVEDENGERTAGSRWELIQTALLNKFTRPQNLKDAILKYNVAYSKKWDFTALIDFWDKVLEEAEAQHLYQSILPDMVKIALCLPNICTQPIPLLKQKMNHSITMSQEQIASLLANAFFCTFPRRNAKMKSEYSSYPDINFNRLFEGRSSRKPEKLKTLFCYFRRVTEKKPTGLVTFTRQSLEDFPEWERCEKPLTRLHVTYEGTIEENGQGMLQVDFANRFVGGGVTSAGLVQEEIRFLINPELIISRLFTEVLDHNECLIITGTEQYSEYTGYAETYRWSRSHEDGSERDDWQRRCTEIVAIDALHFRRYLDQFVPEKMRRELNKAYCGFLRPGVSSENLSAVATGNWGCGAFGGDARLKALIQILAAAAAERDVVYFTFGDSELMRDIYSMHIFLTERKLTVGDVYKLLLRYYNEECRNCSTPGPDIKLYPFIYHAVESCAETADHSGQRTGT

| Structure (SMILES) | IC50 (Human Full Length PARG; read-out: PARG Biochem IC50) [nM] | IC50 (PARG in HeLa cell line; [1]) [nM] | IC50 (Human Full Length PARG; [2]) [nM] | also measured |
| --- | --- | --- | --- | --- |
| Cc1cc(Cn2c(=O)c3cc(S(=O)(=O)NC4(CF)CC4)ccc3n(Cc3nnc(C)o3)c2=O)on1 [Example 556, N-[1-(Fluoromethyl)cyclopropyl]-3-[(3-methylisoxazol-5-yl)methyl]-1-[(5-methyl-1,3,4-oxadiazol-2-yl)methyl]-2,4-dioxo-quinazoline-6-sulfonamide] | 348 | 1030 | – | – |
| CCn1c(=O)n(Cc2cnc(C)s2)c(=O)c2cc(S(=O)(=O)NC3(C#N)CC3)ccc21 [Example 455, N-(1-Cyanocyclopropyl)-1-ethyl-3-[(2-methylthiazol-5-yl)methyl]-2,4-dioxo-quinazoline-6-sulfonamide] | 177 | 283 | – | – |
| Cc1cc(Cn2c(=O)c3cc(S(=O)(=O)NC4(C)CC4)ccc3n(C(F)F)c2=O)on1 [Example 605, 1-(Difluoromethyl)-N-(1-methylcyclopropyl)-3-[(3-methylisoxazol-5-yl)methyl]-2,4-dioxo-quinazoline-6-sulfonamide] | 1370 | 588 | – | – |
| Cc1cc(Cn2c(=O)c3cc(S(=O)(=O)NC4(C)CC4)ccc3n(CCC(N)=O)c2=O)on1 [Example 277] | – | – | 432 | IC50 (PARG in HeLa cell line; [3]): 5760 nM |
| Cn1cc(Cn2c(=O)c3cc(S(=O)(=O)NC4(C)CC4)ccc3n(CC(F)(F)F)c2=O)cn1 [Example 621, N-(1-Methylcyclopropyl)-3-[(1-methylpyrazol-4-yl)methyl]-2,4-dioxo-1-(2,2,2-trifluoroethyl)quinazoline-6-sulfonamide] | 257 | 135 | – | – |
| Cn1cc(Cn2c(=O)[nH]c3c(Br)cc(S(=O)(=O)NC4(C)CC4)cc3c2=O)cn1 [Example 422, 8-Bromo-N-(1-methylcyclopropyl)-3-[(1-methylpyrazol-4-yl)methyl]-2,4-dioxo-1H-quinazoline-6-sulfonamide] | 512 | 611 | – | – |
| Cn1cc(Cn2c(=O)c3cc(S(=O)(=O)NC4(CF)CC4)ccc3n(CC3CCOCC3)c2=O)cn1 [Example 442, N-[1-(Fluoromethyl)cyclopropyl]-3-[(1-methylpyrazol-4-yl)methyl]-2,4-dioxo-1-(tetrahydropyran-4-ylmethyl)quinazoline-6-sulfonamide] | 43 | 134 | – | – |
| Cc1cc(Cn2c(=O)c3cc(S(=O)(=O)NC4(C)CC4)cc(-c4ccc(C)s4)c3n(C)c2=O)on1 [Example 493, 1-Methyl-N-(1-methylcyclopropyl)-3-[(3-methylisoxazol-5-yl)methyl]-8-(5-methyl-2-thienyl)-2,4-dioxo-quinazoline-6-sulfonamide] | 453 | 524 | – | – |
| Cc1nc(Cn2c(=O)n(Cc3cnn(C)c3)c(=O)c3cc(S(=O)(=O)NC4(CF)CC4)ccc32)no1 [Example 546, N-[1-(Fluoromethyl)cyclopropyl]-1-[(5-methyl-1,2,4-oxadiazol-3-yl)methyl]-3-[(1-methylpyrazol-4-yl)methyl]-2,4-dioxo-quinazoline-6-sulfonamide] | 152 | 182 | – | – |
| COCCOCCn1c(=O)n(Cc2cnn(C)c2)c(=O)c2cc(S(=O)(=O)NC3(CF)CC3)ccc21 [Example 618, N-[1-(Fluoromethyl)cyclopropyl]-1-[2-(2-methoxyethoxy)ethyl]-3-[(1-methylpyrazol-4-yl)methyl]-2,4-dioxo-quinazoline-6-sulfonamide] | 247 | – | – | IC50 (PARG in HeLa cell line; [4]): 325 nM |
| Cn1cc(Cn2c(=O)c3cc(S(=O)(=O)NC4(C#N)CC4)ccc3n(CC3COC3)c2=O)cn1 [Example 354] | – | – | 164 | IC50 (PARG in HeLa cell line; [5]): 18000 nM |
| Cc1ncc(Cn2c(=O)[nH]c3ccc(S(=O)(=O)NC4(C)CC4)cc3c2=O)s1 [Example 220, N-(1-Methylcyclopropyl)-3-[(2-methylthiazol-5-yl)methyl]-2,4-dioxo-1H-quinazoline-6-sulfonamide] | – | – | 273 | IC50 (PARG in HeLa cell line; [3]): 481 nM |
| Cc1cc(Cn2c(=O)c3cc(S(=O)(=O)NC4(CF)CC4)ccc3n(CC3CCOC3)c2=O)on1 (stereo not drawn) [Example 524, N-[1-(Fluoromethyl)cyclopropyl]-3-[(3-methylisoxazol-5-yl)methyl]-2,4-dioxo-1-(tetrahydrofuran-3-ylmethyl)quinazoline-6-sulfonamide] | 125 | 310 | – | – |
| Cn1cc(Cn2c(=O)[nH]c3ccc(S(=O)(=O)NC4(C#N)CC4)cc3c2=O)cn1 [Example 336, N-(1-Cyanocyclopropyl)-3-[(1-methylpyrazol-4-yl)methyl]-2,4-dioxo-1H-quinazoline-6-sulfonamide] | – | – | 401 | IC50 (PARG in HeLa cell line; [5]): 17900 nM |
| Cc1cc(Cn2c(=O)n(Cc3cnn(C)c3)c(=O)c3cc(S(=O)(=O)NC4(CF)CC4)ccc32)[nH]n1 [Example 561, N-[1-(Fluoromethyl)cyclopropyl]-3-[(1-methylpyrazol-4-yl)methyl]-1-[(3-methyl-1H-pyrazol-5-yl)methyl]-2,4-dioxo-quinazoline-6-sulfonamide] | 95 | 570 | – | – |
| Cn1cc(Cn2c(=O)c3cc(S(=O)(=O)NC4(C)CC4)ccc3n(CC3CCO3)c2=O)cn1 (stereo not drawn) [Example 343] | – | – | 195 | IC50 (PARG in HeLa cell line; [3]): 351 nM |
| CSCCn1c(=O)n(Cc2cc(C)no2)c(=O)c2cc(S(=O)(=O)NC3(C)CC3)ccc21 [Example 362] | – | – | 331 | IC50 (PARG in HeLa cell line; [3]): 126 nM |
| Cc1cc(Cn2c(=O)c3cc(S(=O)(=O)NC4(C)CC4)ccc3n(CC3CCC(=O)CC3)c2=O)on1 [Example 421, N-(1-Methylcyclopropyl)-3-[(3-methylisoxazol-5-yl)methyl]-2,4-dioxo-1-[(4-oxocyclohexyl)methyl]quinazoline-6-sulfonamide] | 193 | – | – | IC50 (PARG in HeLa cell line; [4]): 589 nM |
| Cn1cc(Cn2c(=O)c3cc(S(=O)(=O)NC4(C)CC4)ccc3n(CC3CCOC3)c2=O)cn1 (stereo not drawn) [Example 259] | – | – | 108 | IC50 (PARG in HeLa cell line; [3]): 108 nM |
| Cn1cc(Cn2c(=O)c3cc(S(=O)(=O)NC4(CF)CC4)ccc3n(Cc3cnn(C)n3)c2=O)cn1 [Example 596, N-[1-(Fluoromethyl)cyclopropyl]-3-[(1-methylpyrazol-4-yl)methyl]-1-[(2-methyltriazol-4-yl)methyl]-2,4-dioxo-quinazoline-6-sulfonamide] | 85 | 96 | – | – |
| CN(C)CC#Cc1cc(S(=O)(=O)NC2(C)CC2)cc2c(=O)n(Cc3cnn(C)c3)c(=O)[nH]c12 [Example 429, 8-[3-(Dimethylamino)prop-1-ynyl]-N-(1-methylcyclopropyl)-3-[(1-methylpyrazol-4-yl)methyl]-2,4-dioxo-1H-quinazoline-6-sulfonamide] | 1770 | 1520 | – | – |
| Cn1cc(Cn2c(=O)c3cc(S(=O)(=O)NC4(C)CC4)c(F)cc3n(CC3CC3)c2=O)cn1 [Example 388] | – | – | 25 | IC50 (PARG in HeLa cell line; [3]): 31 nM |
| CC(C)=CCn1c(=O)n(Cc2cnn(C)c2)c(=O)c2cc(S(=O)(=O)NC3(CF)CC3)ccc21 [Example 609, N-[1-(Fluoromethyl)cyclopropyl]-1-(3-methylbut-2-enyl)-3-[(1-methylpyrazol-4-yl)methyl]-2,4-dioxo-quinazoline-6-sulfonamide] | 51 | 56 | – | – |
| Cc1cc(Cn2c(=O)c3cc(S(=O)(=O)NC4(CF)CC4)ccc3n(Cc3nncn3C)c2=O)on1 [Example 551, N-[1-(Fluoromethyl)cyclopropyl]-3-[(3-methylisoxazol-5-yl)methyl]-1-[(4-methyl-1,2,4-triazol-3-yl)methyl]-2,4-dioxo-quinazoline-6-sulfonamide] | 404 | 20400 | – | – |
